Data on 37 compounds can be found in patent US20240368181A1, “QUINOXALINE DERIVATIVES AND USES THEREOF” (Black Diamond Therapeutics, Inc., priority 2021, published 2024).

Bounds are passed on as bounds.

Holding throughout (format): cell-based
The test system of test [1] is RT-112 (FGFR3-Tacc3 fusion) cells. Kind of test: cell proliferation assay (CellTiterGlo), RT-112 cells. The conditions noted are these: Homo sapiens, RT-112, RT112 cells, 72 hours. The text has this: (§1) In some embodiments, the biological assay assess the ability of the compounds to inhibit cell proliferation.
(§2) In some embodiments, cells (e.g., SNU-16 (FGFR2-amplification) cells) may be suspended and dispensed in plates. In some embodiments, cells (e.g., UM-UC-14 (FGFR3-S249C) cells) may be suspended and dispensed in plates. In some embodiments, cells (e.g., DMS-114 (FGFR1 overexpression) cells) may by suspended and dispensed in plates. In some embodiments, cells (e.g., RT-112 (FGFR3-Tacc3 fusion) cells) may be suspended and dispensed in plates. In some embodiments, to determine the effect of the compounds of the present disclosure on cell proliferation, cells (e.g., SNU-16, UM-UC-14, DMS-114 and […] cells) may be incubated in the presence of vehicle control (e.g., DMSO) or a compound of the present disclosure at varying concentrations and the inhibition of cell growth may be determined by luminescent quantification (e.g., of intracellular ATP content using CellTiterGlo), according to the manufacturers protocol. In some embodiments, to determine the IC50 values, the vehicle-treated cells were normalized as viable cells and the growth was analyzed using a software (e.g., the CDD Vault software (Collaborative Drug Discovery, Burlingame, CA)).
For orientation: ATP-based viability assays read luminescence as a measure of living cells.

For test [2], the system named is SNU-16 (FGFR2-amplification) cells. Kind of test: cell proliferation assay (CellTiterGlo), SNU-16 cells. The conditions noted are these: Homo sapiens, 72 hours.
Description: as §1, §2

Test [3] deals with DMS-114 (FGFR1 overexpression) cells. Kind of test: cell proliferation assay (CellTiterGlo), DMS-114 cells. The conditions noted are these: Homo sapiens, DMS-114, 72 h.
Description: as §1, §2

Test [4] relates to UM-UC-14 (FGFR3-S249C) cells. Nature of the test: cell proliferation assay (CellTiterGlo), UM-UC-14 cells. The conditions noted are these: UMUC14, 72 h.
Description: as §1, §2

For orientation: IC50 means the concentration needed to halve the response being measured.

With `Cc1nc2ccc(Oc3ccc4ncc(-c5cnn(C[C@@H]6CCN(C)C[C@H]6F)c5)nc4c3Cl)cc2[nH]1` [Compound 367], the IC50 in test [1] was below 20 nM; in test [2], 20 to 100 nM; in test [3] it was 100 to 400 nM; in test [4], 20 to 100 nM.

With `Cc1nc2ccc(Oc3ccc4ncc(-c5cnn(C6CC7(C6)OCCO7)c5)nc4c3Cl)cc2[nH]1` [Compound 346], the concentration for half-maximal inhibition (IC50) in test [1] was 20 to 100 nM; in test [2], 20 to 100 nM; in test [3] it was at least 400 nM; in test [4] it was 20 to 100 nM.

As to `COC(=O)C(C)(C)n1cc(-c2cnc3ccc(Oc4ccc5nc(C)[nH]c5c4F)c(Cl)c3n2)cn1` [Compound 112], the concentration for half-maximal inhibition (IC50) was 20 to 100 nM in test [1], below 20 nM in test [2], 100 to 400 nM in test [3] and below 20 nM in test [4].

As to `Cc1nc2cc(F)c(Oc3ccc4ncc(-c5cnn(CCO)c5)nc4c3Cl)cc2[nH]1` [Compound 247], the concentration for half-maximal inhibition (IC50) in test [1] was 20 to 100 nM; in test [2], 20 to 100 nM; in test [3], at least 400 nM; in test [4] it was 20 to 100 nM.

`Cc1nc2ccc(Oc3ccc4ncc(-c5cnn([C@H]6C[C@H](C(F)(F)F)C6)c5)nc4c3Cl)cc2[nH]1` [Compound 178]: the IC50 in test [2] was 20 to 100 nM; in test [3], at least 400 nM; in test [4], at least 400 nM.

For `Cc1nc2ccc(Oc3ccc4ncc(-c5cnn(C[C@]67C[C@H](CO6)C7)c5)nc4c3Cl)cc2[nH]1` [Compound 337], the IC50 in test [1] is 20 to 100 nM; in test [2], 20 to 100 nM; in test [3], at least 400 nM; in test [4], 20 to 100 nM.

Regarding `Cc1nc2ccc(Oc3ccc4ncc(-c5cnn(CC(=O)N6CCCC6)c5)nc4c3Cl)cc2[nH]1` [Compound 383], the IC50 in test [1] was 20 to 100 nM; in test [2], 20 to 100 nM; in test [3] it was at least 400 nM; in test [4] it was 20 to 100 nM.

With `CCS(=O)(=O)N1CC(n2cc(-c3cnc4ccc(Oc5ccc6nc(C)[nH]c6c5)c(Cl)c4n3)cn2)C1` [Compound 372], the IC50 in test [1] was 20 to 100 nM; in test [2], 20 to 100 nM; in test [3] it was at least 400 nM; in test [4] it was 20 to 100 nM.

Take `Cc1nc2ccc(Oc3ccc4ncc(-c5cnn(CC6CCC(=O)CC6)c5)nc4c3Cl)cc2[nH]1` [Compound 327]: the IC50 in test [1] is below 20 nM; in test [2], below 20 nM; in test [3] it was at least 400 nM; in test [4] it was below 20 nM.

As for `Cc1nc2ccc(Oc3ccc4ncc(-c5cnn(C6CN(CC(F)F)C6)c5)nc4c3Cl)cc2[nH]1` [Compound 221], the IC50 in test [1] is 20 to 100 nM; in test [2] it was 20 to 100 nM; in test [3], at least 400 nM; in test [4], 20 to 100 nM.

On to `Cc1nc2ccc(Oc3ccc4ncc(-c5cnn(C6CC7CC6CN7C(C)C)c5)nc4c3Cl)cc2[nH]1` (centres unmarked) [Compound 342], for which the concentration for half-maximal inhibition (IC50) in test [1] is 20 to 100 nM; in test [2], 20 to 100 nM; in test [3], at least 400 nM; in test [4], 20 to 100 nM.

On to `Cc1nc2ccc(Oc3ccc4ncc(-c5cnn(C6CN(CC7(F)CC7)C6)c5)nc4c3Cl)cc2[nH]1` [Compound 220], for which the 50% inhibitory concentration (IC50) is 20 to 100 nM in test [1], 20 to 100 nM in test [2], at least 400 nM in test [3] and 20 to 100 nM in test [4].

For the compound `Cc1nc2ccc(Oc3ccc4ncc(-c5cnn(C6CC7COCC(C6)N7)c5)nc4c3Cl)cc2[nH]1` (centres unmarked) [Compound 187], the IC50 was 20 to 100 nM in test [1], 20 to 100 nM in test [2], at least 400 nM in test [3] and 20 to 100 nM in test [4].

For the compound `CNC(=O)N1CC2CC1CC2Cn1cc(-c2cnc3ccc(Oc4ccc5nc(C)[nH]c5c4)c(Cl)c3n2)cn1` (centres unmarked) [Compound 313], the 50% inhibitory concentration (IC50) in test [1] is 20 to 100 nM; in test [2], 20 to 100 nM; in test [3], at least 400 nM; in test [4], 20 to 100 nM.

On to `Cc1nc2ccc(Oc3ccc4ncc(-c5cnn([C@H]6C[C@@H](N7CC(O)C7)C6)c5)nc4c3Cl)cc2[nH]1` [Compound 213], for which the IC50 in test [1] lay in the range of 20 to 100 nM; in test [2], 20 to 100 nM; in test [3], 100 to 400 nM; in test [4], 20 to 100 nM.

Turning to `Cc1nc2ccc(Oc3ccc4ncc(-c5cnn(CC(N)=O)c5)nc4c3Cl)cc2[nH]1` [Compound 326], the IC50 in test [1] is 100 to 400 nM; in test [2], 20 to 100 nM; in test [3], at least 400 nM; in test [4] it was 100 to 400 nM.

`Cc1nc2ccc(Oc3ccc4ncc(-c5cnn(C6CN(C(F)(F)F)C6)c5)nc4c3Cl)cc2[nH]1` [Compound 200]: the IC50 in test [1] was 100 to 400 nM; in test [2] it was 100 to 400 nM; in test [3], at least 400 nM; in test [4], 100 to 400 nM.

In the case of `Cc1nc2ccc(Oc3ccc4ncc(-c5cnn(CC6CC(F)(F)C6)c5)nc4c3Cl)c(Cl)c2[nH]1` [Compound 136], the IC50 in test [1] and in test [2] was 100 to 400 nM in each case.

For `Cc1nc2ccc(Oc3ccc4ncc(-c5cnn(CCN6C[C@@H]7C[C@H]6CO7)c5)nc4c3Cl)cc2[nH]1` [Compound 225], the half-inhibitory concentration (IC50) in test [1] was 20 to 100 nM; in test [2] it was 20 to 100 nM; in test [3], at least 400 nM; in test [4], 20 to 100 nM.

On to `Cc1nc2ccc(Oc3ccc4ncc(-c5cnn(CC6CCN(C)CC6(F)F)c5)nc4c3Cl)cc2[nH]1` (centres unmarked) [Compound 380], for which the 50% inhibitory concentration (IC50) was below 20 nM in test [1], 20 to 100 nM in test [2], at least 400 nM in test [3] and 20 to 100 nM in test [4].

For the compound `Cc1nc2ccc(Oc3ccc4ncc(-c5cnn(CC6CC(F)(F)C6)c5)nc4c3-n3c(C)ccc3C)cc2[nH]1` [Compound 133], the IC50 in test [1] is 100 to 400 nM; in test [2], at least 400 nM.

For `Cc1nc2ccc(Oc3ccc4ncc(-c5cnn(CC6(O)COC6)c5)nc4c3Cl)c(F)c2[nH]1` [Compound 138], the IC50 in test [1] and in test [2] was at least 400 nM each time.

In the case of `Cc1nc2ccc(Oc3ccc4ncc(-c5cnn(C6CCC(F)(F)CC6)c5)nc4c3Cl)nc2[nH]1` [Compound 177], the IC50 in test [2], in test [3] and in test [4] was at least 400 nM in each case.

As for `Cc1nc2ccc(Oc3ccc4ncc(-c5cnn(CC(=O)N6CCC(F)(F)C6)c5)nc4c3Cl)c(F)c2[nH]1` [Compound 174], the IC50 in test [2] is below 20 nM; in test [3], 100 to 400 nM; in test [4], below 20 nM.

Consider `Cc1nc2ccc(Oc3ccc4ncc(-c5cnn(CC6(O)CC6)c5)nc4c3F)c(Cl)c2[nH]1` [Compound 137], for which the IC50 in test [1] and in test [2] was 100 to 400 nM each time.

Turning to `Cc1nc2ccc(Oc3ccc4ncc(-c5cnn(C6CCN(C(=O)N(C)C)CC6)c5)nc4c3Cl)cc2[nH]1` [Compound 261], the IC50 in test [2] is below 20 nM; in test [3] it was 20 to 100 nM; in test [4], below 20 nM.

For `Cc1nc2ccc(Oc3ccc4ncc(-c5cnn([C@H]6C[C@](C)(O)C6)c5)nc4c3Cl)cc2[nH]1` [Compound 175], the results for the IC50 in test [2], in test [3] and in test [4] were below 20 nM, 100 to 400 nM and 20 to 100 nM, respectively.

Turning to `Cc1nc2ccc(Oc3ccc4ncc(-c5cnn(CC6CC(F)(F)C6)c5)nc4c3C3CCOC3)cc2[nH]1` (centres unmarked) [Compound 134], the IC50 in test [1] and in test [2] was 20 to 100 nM throughout.

Regarding `Cc1nc2ccc(Oc3ccc4ncc(-c5cnn(C[C@H]6C[C@@](C)(O)C6)c5)nc4c3Cl)cc2[nH]1` [Compound 180], the IC50 was 20 to 100 nM in test [2], at least 400 nM in test [3] and 20 to 100 nM in test [4].

Regarding `Cc1nc2ccc(Oc3ccc4ncc(-c5cnn(CC6CC(F)(F)C6)c5)nc4c3-n3ccnc3)c(F)c2[nH]1` [Compound 96], the values for the IC50 in test [1], in test [2] and in test [3] were 20 to 100 nM, 20 to 100 nM and 100 to 400 nM, respectively.

For the compound `Cc1nc2ccc(Oc3ccc4ncc(-c5cnn(C(C)C6CC(F)(F)C6)c5)nc4c3Cl)cc2[nH]1` (centres unmarked) [Compound 182], the IC50 was 20 to 100 nM in test [2], at least 400 nM in test [3] and 20 to 100 nM in test [4].

`Cc1nc2ccc(Oc3ccc4ncc(-c5cnn(C[C@H]6C[C@](C)(O)C6)c5)nc4c3Cl)cc2[nH]1` [Compound 181]: the results for the 50% inhibitory concentration (IC50) in test [2], in test [3] and in test [4] were below 20 nM, at least 400 nM and 20 to 100 nM, respectively.

`Cc1nc2ccc(Oc3ccc4ncc(-c5cnn(C6CCN(C)C7(CC7)C6)c5)nc4c3Cl)c(F)c2[nH]1` (centres unmarked) [Compound 135]: the half-maximal inhibitory concentration (IC50) in test [1] and in test [2] was below 20 nM in each case.

Turning to `Cc1nc2ccc(Oc3ccc4ncc(-c5cnn(CC6CC(F)(F)C6)c5)nc4c3C3CCOC3)c(F)c2[nH]1` (centres unmarked) [Compound 72], the IC50 was below 20 nM in test [1], 20 to 100 nM in test [3] and 20 to 100 nM in test [4].

Consider `Cc1nc2ccc(Oc3ccc4ncc(-c5cnn(C6CCNC7(CC7)C6)c5)nc4c3Cl)cc2[nH]1` (centres unmarked) [Compound 176], for which the half-maximal inhibitory concentration (IC50) in test [2] is 100 to 400 nM; in test [3], 100 to 400 nM; in test [4], below 20 nM.

With `Cc1nc2ccc(Oc3ccc4ncc(-c5cnn(C[C@@H](C)O)c5)nc4c3Cl)cc2[nH]1` [Compound 132], the half-maximal inhibitory concentration (IC50) in test [1] and in test [2] was 20 to 100 nM each time.

As to `Cc1nc2ccc(Oc3ccc4ncc(-c5cnn(CC6(O)CC(O)C6)c5)nc4c3Cl)c(F)c2[nH]1` (centres unmarked) [Compound 102], the figures for the IC50 in test [1], in test [3] and in test [4] were below 20 nM, 20 to 100 nM and below 20 nM, respectively.
